Where two headings read alike, the source gives them in different places.
Biological target: T1, F508delCFTR (Homo sapiens, UniProt P13569, DEL508-508)
T1 construct: expressed in transfected cells; host or cells: CFBE41o- human lung-derived epithelial cells (CFBE4lo-F508delCFTR-HRP), doxycycline-inducible
Experiment: Cell Surface Expression-Horse Radish Peroxidase (CSE-HRP) Assay;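 for Maximum % activity (with co-corrector): co-corrector and positive control are both the same reference corrector at 2 µM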;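 for Maximum % activity (without co-corrector): percent of the 2 µM on-plate positive control corrector response above DMSO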
Type: cell-based
Conditions: for Emax / Maximum % activity (with co-corrector): maximum at any tested concentration, normalized to on-plate positive control; for Emax: read-out: Maximum % activity (without co-corrector)

[1] = test compound without co-corrector
[2] = test compound without co-corrector, read-out: EC50 (without co-corrector)
[3] = with co-corrector (2 μM of 3-[(2R,4R)-4-({[1-(2,2-difluoro-1,3-benzodioxol-5-yl)cyclopropyl]carbonyl}amino)-7-methoxy-3,4-dihydro-2H-chromen-2-yl]benzoic acid)
[4] = with co-corrector (2 μM of 3-[(2R,4R)-4-({[1-(2,2-difluoro-1,3-benzodioxol-5-yl)cyclopropyl]carbonyl}amino)-7-methoxy-3,4-dihydro-2H-chromen-2-yl]benzoic acid), read-out: EC50 (with co-corrector)

T1 sequence (P13569 with tags, fused parts or gaps DEL508-508): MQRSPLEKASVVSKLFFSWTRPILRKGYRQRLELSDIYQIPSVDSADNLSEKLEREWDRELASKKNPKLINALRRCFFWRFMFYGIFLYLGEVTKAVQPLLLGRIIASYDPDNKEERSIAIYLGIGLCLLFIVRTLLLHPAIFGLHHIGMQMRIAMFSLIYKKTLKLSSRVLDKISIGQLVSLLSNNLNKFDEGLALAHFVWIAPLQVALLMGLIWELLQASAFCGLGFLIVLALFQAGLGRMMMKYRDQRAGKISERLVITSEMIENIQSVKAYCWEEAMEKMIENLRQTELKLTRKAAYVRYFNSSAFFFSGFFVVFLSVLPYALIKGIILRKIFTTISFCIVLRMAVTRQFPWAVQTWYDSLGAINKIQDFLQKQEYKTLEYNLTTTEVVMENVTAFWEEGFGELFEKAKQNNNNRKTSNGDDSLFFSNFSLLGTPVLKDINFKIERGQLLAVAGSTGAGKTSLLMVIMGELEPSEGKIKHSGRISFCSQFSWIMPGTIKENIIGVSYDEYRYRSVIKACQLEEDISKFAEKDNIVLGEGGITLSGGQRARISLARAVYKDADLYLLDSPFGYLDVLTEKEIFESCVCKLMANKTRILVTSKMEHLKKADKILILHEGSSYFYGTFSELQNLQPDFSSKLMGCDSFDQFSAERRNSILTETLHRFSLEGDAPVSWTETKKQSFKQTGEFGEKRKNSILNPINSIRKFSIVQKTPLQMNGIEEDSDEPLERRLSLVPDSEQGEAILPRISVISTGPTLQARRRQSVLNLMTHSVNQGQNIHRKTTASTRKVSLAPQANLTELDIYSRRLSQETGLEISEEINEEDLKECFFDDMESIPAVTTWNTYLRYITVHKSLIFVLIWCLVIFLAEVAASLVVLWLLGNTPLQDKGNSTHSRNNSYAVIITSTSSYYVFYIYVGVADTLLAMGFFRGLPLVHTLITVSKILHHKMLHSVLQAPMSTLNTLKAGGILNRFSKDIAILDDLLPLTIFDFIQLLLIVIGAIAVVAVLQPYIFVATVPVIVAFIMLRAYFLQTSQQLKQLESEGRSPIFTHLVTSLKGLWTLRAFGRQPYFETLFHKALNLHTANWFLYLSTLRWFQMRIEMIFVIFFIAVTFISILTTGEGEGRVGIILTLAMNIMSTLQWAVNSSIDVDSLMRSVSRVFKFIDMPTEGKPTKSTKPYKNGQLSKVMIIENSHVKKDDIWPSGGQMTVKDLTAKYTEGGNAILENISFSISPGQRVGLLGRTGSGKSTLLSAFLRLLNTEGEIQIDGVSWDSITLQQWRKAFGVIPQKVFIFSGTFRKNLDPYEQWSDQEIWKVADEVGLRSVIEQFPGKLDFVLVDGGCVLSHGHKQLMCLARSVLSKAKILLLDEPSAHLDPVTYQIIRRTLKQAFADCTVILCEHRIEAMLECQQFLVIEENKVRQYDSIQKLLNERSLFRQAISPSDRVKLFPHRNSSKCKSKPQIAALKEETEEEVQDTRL

Emax [1] | EC50 [2] | Maximum % activity (with co-corrector) [3] | EC50 [4] | Maximum % activity (with co-corrector) (with co-corrector (2 μM)) | Compound
> 200% | 1 to 10 µM | +++ (≥350) | 1 to 10 µM |  | COc1ncc(-c2cccc(F)c2F)cc1CN[C@H]1[C@H](C(C)(C)C)[C@@H](C(=O)O)N(C(=O)C2CCCCC2)[C@H]1c1ccccc1 [II-346]
< 100% | > 10 µM |  | 1 to 10 µM | ++ (≥150 and <350) | CC(C)(C)[C@H]1[C@H](Nc2cc(C#N)cc(Cl)n2)[C@H](c2ccccc2)N(C(=O)C2CCCCC2)[C@@H]1C(=O)O [III-146]
< 100% | > 10 µM | ++ (≥150 and <350) | 1 to 10 µM |  | CC(C)(C)[C@@H]1[C@@H](Nc2cc(C(F)(F)F)cc[n+]2[O-])[C@@H](c2ccccc2)N(C(=O)C2CCCCC2)[C@H]1C(=O)O (racemic) [III-31]

Reference: patent publication US20180099931A1 (AbbVie S.à.r.l., priority 2016, published 2018)
